# Results published in the supplement of paper PMC10307832.
# Legend:
# Assay in all cases: relative viability (nuclei count vs DMSO), 5 days (fraction); higher = more cells survive
# ABC-1 = tested on: ABC-1
# In short: (§1)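 The day after seeding in 1536-well plates, lung cancer cell lines were treated by pin tool with a single drug, or with a fixed anchor-drug dose together with five library-drug doses (not always all listed) in √10 steps. After 5 days, a combined fix-and-stain solution (final 0.05% Triton X-100, 1% formaldehyde, 1 ug/ml Hoechst) was added. Nuclei counted on 4× images gave relative viability as treated counts over vehicle counts, reported as the median of duplicate plates.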
# EKVX = tested on: EKVX
# In short: as §1
# NCI-H1623 = tested on: NCI-H1623
# In short: as §1
# NCI-H2126 = tested on: NCI-H2126
# In short: as §1
# NCI-H522 = tested on: NCI-H522
# In short: as §1
# NCI-H1648 = tested on: NCI-H1648
# In short: as §1
# NCI-H1703 = tested on: NCI-H1703
# In short: as §1
smiles,measurement,setting,value
C=C1C(=O)O[C@@H](CCCCCCCC)[C@@H]1C(=O)O [C-75] + CCNC(=O)c1noc(-c2cc(C(C)C)c(O)cc2O)c1-c1ccc(CN2CCOCC2)cc1 [Luminespib] (partner 0.01 µM),relative viability,ABC-1; first compound 0.253 µM,0.389
same,relative viability,ABC-1; first compound 0.8 µM,0.51
same,relative viability,ABC-1; first compound 2.53 µM,0.364
same,relative viability,ABC-1; first compound 8 µM,0.378
same,relative viability,EKVX; first compound 0.08 µM,0.867
same,relative viability,EKVX; first compound 0.253 µM,0.984
same,relative viability,EKVX; first compound 0.8 µM,0.788
same,relative viability,EKVX; first compound 8 µM,0.891
same,relative viability,NCI-H1623; first compound 0.08 µM,0.436
same,relative viability,NCI-H1623; first compound 0.253 µM,0.536
same,relative viability,NCI-H1623; first compound 0.8 µM,0.585
same,relative viability,NCI-H1623; first compound 2.53 µM,0.505
same,relative viability,NCI-H1623; first compound 8 µM,0.475
same,relative viability,NCI-H2126; first compound 0.08 µM,0.931
same,relative viability,NCI-H2126; first compound 0.253 µM,0.977
same,relative viability,NCI-H2126; first compound 0.8 µM,0.804
same,relative viability,NCI-H2126; first compound 2.53 µM,0.815
same,relative viability,NCI-H2126; first compound 8 µM,0.872
same,relative viability,NCI-H522; first compound 0.08 µM,1.06
same,relative viability,NCI-H522; first compound 0.253 µM,1.04
same,relative viability,NCI-H522; first compound 0.8 µM,1.06
same,relative viability,NCI-H522; first compound 2.53 µM,0.904
same,relative viability,NCI-H522; first compound 8 µM,0.911
CC1(C)CCC(c2ccc(Cl)cc2)=C(CN2CCN(c3ccc(C(=O)NS(=O)(=O)c4ccc(N[C@H](CCN5CCOCC5)CSc5ccccc5)c(S(=O)(=O)C(F)(F)F)c4)cc3)CC2)C1 [Navitoclax] + CCNC(=O)c1noc(-c2cc(C(C)C)c(O)cc2O)c1-c1ccc(CN2CCOCC2)cc1 [Luminespib] (partner 0.01 µM),relative viability,ABC-1; first compound 0.005 µM,0.596
same,relative viability,ABC-1; first compound 0.01581 µM,0.909
same,relative viability,ABC-1; first compound 0.05 µM,0.677
same,relative viability,ABC-1; first compound 0.5 µM,0.6
same,relative viability,EKVX; first compound 0.005 µM,0.94
same,relative viability,EKVX; first compound 0.01581 µM,1.01
same,relative viability,EKVX; first compound 0.05 µM,0.663
same,relative viability,EKVX; first compound 0.1581 µM,0.784
same,relative viability,EKVX; first compound 0.5 µM,0.785
same,relative viability,NCI-H1623; first compound 0.005 µM,0.478
same,relative viability,NCI-H1623; first compound 0.01581 µM,0.631
same,relative viability,NCI-H1623; first compound 0.05 µM,0.463
same,relative viability,NCI-H1623; first compound 0.1581 µM,0.515
same,relative viability,NCI-H1623; first compound 0.5 µM,0.471
same,relative viability,NCI-H2126; first compound 0.005 µM,0.906
same,relative viability,NCI-H2126; first compound 0.01581 µM,0.952
same,relative viability,NCI-H2126; first compound 0.05 µM,0.923
same,relative viability,NCI-H2126; first compound 0.1581 µM,0.779
same,relative viability,NCI-H2126; first compound 0.5 µM,0.844
same,relative viability,NCI-H522; first compound 0.005 µM,1.07
same,relative viability,NCI-H522; first compound 0.01581 µM,1.25
same,relative viability,NCI-H522; first compound 0.05 µM,1.04
same,relative viability,NCI-H522; first compound 0.1581 µM,1.19
same,relative viability,NCI-H522; first compound 0.5 µM,1.36
CC1(C)CCC(c2ccc(Cl)cc2)=C(CN2CCN(c3ccc(C(=O)NS(=O)(=O)c4ccc(N[C@H](CCN5CCOCC5)CSc5ccccc5)c(S(=O)(=O)C(F)(F)F)c4)cc3)CC2)C1 [Navitoclax] + Cc1nc(Nc2ncc(C(=O)Nc3c(C)cccc3Cl)s2)cc(N2CCN(CCO)CC2)n1 [Dasatinib] (partner 0.075 µM),relative viability,ABC-1; first compound 0.005 µM,0.588
same,relative viability,ABC-1; first compound 0.01581 µM,0.644
same,relative viability,ABC-1; first compound 0.05 µM,0.49
same,relative viability,ABC-1; first compound 0.1581 µM,0.555
same,relative viability,ABC-1; first compound 0.5 µM,0.61
same,relative viability,EKVX; first compound 0.005 µM,0.607
same,relative viability,EKVX; first compound 0.01581 µM,0.583
same,relative viability,EKVX; first compound 0.05 µM,0.512
same,relative viability,EKVX; first compound 0.1581 µM,0.692
same,relative viability,EKVX; first compound 0.5 µM,0.598
same,relative viability,NCI-H1623; first compound 0.005 µM,0.546
same,relative viability,NCI-H1623; first compound 0.01581 µM,0.578
same,relative viability,NCI-H1623; first compound 0.05 µM,0.518
same,relative viability,NCI-H1623; first compound 0.1581 µM,0.539
same,relative viability,NCI-H1623; first compound 0.5 µM,0.618
same,relative viability,NCI-H2126; first compound 0.005 µM,0.601
same,relative viability,NCI-H2126; first compound 0.01581 µM,0.709
same,relative viability,NCI-H2126; first compound 0.05 µM,0.644
same,relative viability,NCI-H2126; first compound 0.1581 µM,0.509
same,relative viability,NCI-H2126; first compound 0.5 µM,0.569
same,relative viability,NCI-H522; first compound 0.005 µM,0.685
same,relative viability,NCI-H522; first compound 0.01581 µM,1.02
same,relative viability,NCI-H522; first compound 0.05 µM,1.17
same,relative viability,NCI-H522; first compound 0.1581 µM,1.06
same,relative viability,NCI-H522; first compound 0.5 µM,0.816
CC1(C)CCC(c2ccc(Cl)cc2)=C(CN2CCN(c3ccc(C(=O)NS(=O)(=O)c4ccc(N[C@H](CCN5CCOCC5)CSc5ccccc5)c(S(=O)(=O)C(F)(F)F)c4)cc3)CC2)C1 [Navitoclax] + NC(=O)Nc1cc(-c2cccc(F)c2)sc1C(=O)N[C@H]1CCCNC1 [AZD7762] (partner 0.2 µM),relative viability,ABC-1; first compound 0.005 µM,0.816
same,relative viability,ABC-1; first compound 0.01581 µM,1.22
same,relative viability,ABC-1; first compound 0.1581 µM,0.687
same,relative viability,ABC-1; first compound 0.5 µM,0.72
same,relative viability,EKVX; first compound 0.005 µM,0.728
same,relative viability,EKVX; first compound 0.01581 µM,0.784
same,relative viability,EKVX; first compound 0.05 µM,0.769
same,relative viability,EKVX; first compound 0.1581 µM,0.729
same,relative viability,EKVX; first compound 0.5 µM,0.777
same,relative viability,NCI-H1648; first compound 0.005 µM,0.799
same,relative viability,NCI-H1648; first compound 0.01581 µM,0.669
same,relative viability,NCI-H1648; first compound 0.1581 µM,0.667
same,relative viability,NCI-H1648; first compound 0.5 µM,0.604
same,relative viability,NCI-H1703; first compound 0.005 µM,0.128
same,relative viability,NCI-H1703; first compound 0.01581 µM,0.161
same,relative viability,NCI-H1703; first compound 0.05 µM,0.149
same,relative viability,NCI-H1703; first compound 0.5 µM,0.122
same,relative viability,NCI-H2126; first compound 0.005 µM,1.06
same,relative viability,NCI-H2126; first compound 0.01581 µM,0.931
same,relative viability,NCI-H2126; first compound 0.05 µM,1.05
same,relative viability,NCI-H2126; first compound 0.1581 µM,0.915
same,relative viability,NCI-H2126; first compound 0.5 µM,0.947
same,relative viability,NCI-H522; first compound 0.005 µM,0.748
same,relative viability,NCI-H522; first compound 0.01581 µM,0.987
same,relative viability,NCI-H522; first compound 0.05 µM,1.12
same,relative viability,NCI-H522; first compound 0.1581 µM,0.832
same,relative viability,NCI-H522; first compound 0.5 µM,0.9
